In patent publication US12194124B2, “Personal care compositions for treating odor causing bacteria and methods for the same” (Colgate-Palmolive Company, priority 2019, dated 2025):

Tested on: S. Epidermidis
Test: Growth inhibition assay in 96-well plate, optical density of S. Epidermidis
Format: cell-based, Staphylococcus epidermidis
Method: The efficacy of 2-butyl octanol for selectively promoting, inhibiting, reducing, and/or treating bacterial growth was evaluated. Particularly, the efficacy of 2-butyl octanol for selectively promoting, inhibiting, reducing, and/or treating bacterial growth of Corynebacterium and Staphylococcus was evaluated. To evaluate the efficacy, an active solution was prepared by emulsifying 2-butyl octanol with a nonionic surfactant, namely, Polysorbate 80. The active solution included the 2-butyl octanol and the Polysorbate 80 in a ratio of about 83:17. Both positive controls (including no active solution) and negative controls (including no bacteria) were also prepared.
A 96-well plate was utilized to evaluate the growth of the respective bacteria at varying dilutions. Each of the wells of a 96-well plate was aseptically filled with about 100 μL of Tryptic Soy Broth (TSB). In the first well of each row, about 100 μL of either the active solution (including the 2-butyl octanol and Polysorbate 80) or the desired solvent for the respective positive and negative controls was added to thereby provide a total of about 200 μL in the first well of the each respective row. A multi-channel pipette was then utilized to prepare a two-fold dilution in each column. Specifically, a multi-channel pipette set to about 100 μL was utilized to mix and transfer about 100 μL of the 200 μL from the wells of the first column to the respective wells of a subsequent column. This was repeated for each of the remaining eleven columns. About 100 μL of the twelfth column was removed, thereby leaving about 100 μL in each of the 96 wells. […] Specifically, a phosphate buffered saline (PBS) was utilized for the negative control. About 100 μL of the respective bacteria adjusted to 0.1 optical density (OD) bacteria was added to all other wells. The well plate was then incubated overnight at about 37° C. in a growth inhibition assay machine. Measurements were taken at about one hour increments.

## CCCCCCC(CO)CCCC (stereo not shown) [2-butyl octanol, 2-butyl-1-octanol]
0.02% 2-Butyl Octanol, 1 Hour
  Measured Optical Density of S. Epidermidis: 0.07
0.02% 2-Butyl Octanol, 2 Hour
  Measured Optical Density of S. Epidermidis: 0.327
0.02% 2-Butyl Octanol, 3 Hour
  Measured Optical Density of S. Epidermidis: 0.519
0.02% 2-Butyl Octanol, 4 Hour
  Measured Optical Density of S. Epidermidis: 0.561
0.02% 2-Butyl Octanol, 5 Hour
  Measured Optical Density of S. Epidermidis: 0.548
0.02% 2-Butyl Octanol, 6 Hour
  Measured Optical Density of S. Epidermidis: 0.564
0.02% 2-Butyl Octanol, 7 Hour
  Measured Optical Density of S. Epidermidis: 0.586
0.02% 2-Butyl Octanol, 8 Hour
  Measured Optical Density of S. Epidermidis: 0.593
0.02% 2-Butyl Octanol, 9 Hour
  Measured Optical Density of S. Epidermidis: 0.602
0.02% 2-Butyl Octanol, 10 Hour
  Measured Optical Density of S. Epidermidis: 0.623
0.02% 2-Butyl Octanol, 11 Hour
  Measured Optical Density of S. Epidermidis: 0.652
0.02% 2-Butyl Octanol, 12 Hour
  Measured Optical Density of S. Epidermidis: 0.651
0.02% 2-Butyl Octanol, 13 Hour
  Measured Optical Density of S. Epidermidis: 0.66
0.02% 2-Butyl Octanol, 14 Hour
  Measured Optical Density of S. Epidermidis: 0.689
0.02% 2-Butyl Octanol, 15 Hour
  Measured Optical Density of S. Epidermidis: 0.809
0.02% 2-Butyl Octanol, 16 Hour
  Measured Optical Density of S. Epidermidis: 0.893
0.02% 2-Butyl Octanol, 17 Hour
  Measured Optical Density of S. Epidermidis: 0.951
0.02% 2-Butyl Octanol, 18 Hour
  Measured Optical Density of S. Epidermidis: 0.97
0.04% 2-Butyl Octanol, 1 Hour
  Measured Optical Density of S. Epidermidis: 0.088
0.04% 2-Butyl Octanol, 2 Hour
  Measured Optical Density of S. Epidermidis: 0.351
0.04% 2-Butyl Octanol, 3 Hour
  Measured Optical Density of S. Epidermidis: 0.55
0.04% 2-Butyl Octanol, 4 Hour
  Measured Optical Density of S. Epidermidis: 0.583
0.04% 2-Butyl Octanol, 5 Hour
  Measured Optical Density of S. Epidermidis: 0.578
0.04% 2-Butyl Octanol, 6 Hour
  Measured Optical Density of S. Epidermidis: 0.592
0.04% 2-Butyl Octanol, 7 Hour
  Measured Optical Density of S. Epidermidis: 0.613
0.04% 2-Butyl Octanol, 8 Hour
  Measured Optical Density of S. Epidermidis: 0.64
0.04% 2-Butyl Octanol, 9 Hour
  Measured Optical Density of S. Epidermidis: 0.651
0.04% 2-Butyl Octanol, 10 Hour
  Measured Optical Density of S. Epidermidis: 0.664
0.04% 2-Butyl Octanol, 11 Hour
  Measured Optical Density of S. Epidermidis: 0.666
0.04% 2-Butyl Octanol, 12 Hour
  Measured Optical Density of S. Epidermidis: 0.656
0.04% 2-Butyl Octanol, 13 Hour
  Measured Optical Density of S. Epidermidis: 0.652
0.04% 2-Butyl Octanol, 14 Hour
  Measured Optical Density of S. Epidermidis: 0.675
0.04% 2-Butyl Octanol, 15 Hour
  Measured Optical Density of S. Epidermidis: 0.756
0.04% 2-Butyl Octanol, 16 Hour
  Measured Optical Density of S. Epidermidis: 0.825
0.04% 2-Butyl Octanol, 17 Hour
  Measured Optical Density of S. Epidermidis: 0.915
0.04% 2-Butyl Octanol, 18 Hour
  Measured Optical Density of S. Epidermidis: 0.961
0.08% 2-Butyl Octanol, 1 Hour
  Measured Optical Density of S. Epidermidis: 0.111
0.08% 2-Butyl Octanol, 2 Hour
  Measured Optical Density of S. Epidermidis: 0.482
0.08% 2-Butyl Octanol, 3 Hour
  Measured Optical Density of S. Epidermidis: 0.688
0.08% 2-Butyl Octanol, 4 Hour
  Measured Optical Density of S. Epidermidis: 0.703
0.08% 2-Butyl Octanol, 5 Hour
  Measured Optical Density of S. Epidermidis: 0.684
0.08% 2-Butyl Octanol, 6 Hour
  Measured Optical Density of S. Epidermidis: 0.677
0.08% 2-Butyl Octanol, 7 Hour
  Measured Optical Density of S. Epidermidis: 0.662
0.08% 2-Butyl Octanol, 8 Hour
  Measured Optical Density of S. Epidermidis: 0.652
0.08% 2-Butyl Octanol, 9 Hour
  Measured Optical Density of S. Epidermidis: 0.653
0.08% 2-Butyl Octanol, 10 Hour
  Measured Optical Density of S. Epidermidis: 0.658
0.08% 2-Butyl Octanol, 11 Hour
  Measured Optical Density of S. Epidermidis: 0.646
0.08% 2-Butyl Octanol, 12 Hour
  Measured Optical Density of S. Epidermidis: 0.63
0.08% 2-Butyl Octanol, 13 Hour
  Measured Optical Density of S. Epidermidis: 0.632
0.08% 2-Butyl Octanol, 14 Hour
  Measured Optical Density of S. Epidermidis: 0.662
0.08% 2-Butyl Octanol, 15 Hour
  Measured Optical Density of S. Epidermidis: 0.741
0.08% 2-Butyl Octanol, 16 Hour
  Measured Optical Density of S. Epidermidis: 0.795
0.08% 2-Butyl Octanol, 17 Hour
  Measured Optical Density of S. Epidermidis: 0.883
0.08% 2-Butyl Octanol, 18 Hour
  Measured Optical Density of S. Epidermidis: 0.943
0.16% 2-Butyl Octanol, 1 Hour
  Measured Optical Density of S. Epidermidis: 0.148
0.16% 2-Butyl Octanol, 2 Hour
  Measured Optical Density of S. Epidermidis: 0.564
0.16% 2-Butyl Octanol, 3 Hour
  Measured Optical Density of S. Epidermidis: 0.76
0.16% 2-Butyl Octanol, 4 Hour
  Measured Optical Density of S. Epidermidis: 0.786
0.16% 2-Butyl Octanol, 5 Hour
  Measured Optical Density of S. Epidermidis: 0.778
0.16% 2-Butyl Octanol, 6 Hour
  Measured Optical Density of S. Epidermidis: 0.764
0.16% 2-Butyl Octanol, 7 Hour
  Measured Optical Density of S. Epidermidis: 0.757
0.16% 2-Butyl Octanol, 8 Hour
  Measured Optical Density of S. Epidermidis: 0.741
0.16% 2-Butyl Octanol, 9 Hour
  Measured Optical Density of S. Epidermidis: 0.729
0.16% 2-Butyl Octanol, 10 Hour
  Measured Optical Density of S. Epidermidis: 0.726
0.16% 2-Butyl Octanol, 11 Hour
  Measured Optical Density of S. Epidermidis: 0.718
0.16% 2-Butyl Octanol, 12 Hour
  Measured Optical Density of S. Epidermidis: 0.702
0.16% 2-Butyl Octanol, 13 Hour
  Measured Optical Density of S. Epidermidis: 0.695
0.16% 2-Butyl Octanol, 14 Hour
  Measured Optical Density of S. Epidermidis: 0.702
0.16% 2-Butyl Octanol, 15 Hour
  Measured Optical Density of S. Epidermidis: 0.764
0.16% 2-Butyl Octanol, 16 Hour
  Measured Optical Density of S. Epidermidis: 0.801
0.16% 2-Butyl Octanol, 17 Hour
  Measured Optical Density of S. Epidermidis: 0.844
0.16% 2-Butyl Octanol, 18 Hour
  Measured Optical Density of S. Epidermidis: 0.874
2-butyl octanol about 0.02 weight % to about 5.2 weight %
  growth of S. epidermidis: did not inhibit the growth of and/or promoted the growth of
5.2% 2-Butyl Octanol, 1 Hour
  Measured Optical Density of S. Epidermidis: 0.257
5.2% 2-Butyl Octanol, 2 Hour
  Measured Optical Density of S. Epidermidis: 0.501
5.2% 2-Butyl Octanol, 3 Hour
  Measured Optical Density of S. Epidermidis: 0.583
5.2% 2-Butyl Octanol, 4 Hour
  Measured Optical Density of S. Epidermidis: 0.624
5.2% 2-Butyl Octanol, 5 Hour
  Measured Optical Density of S. Epidermidis: 0.665
5.2% 2-Butyl Octanol, 6 Hour
  Measured Optical Density of S. Epidermidis: 0.723
5.2% 2-Butyl Octanol, 7 Hour
  Measured Optical Density of S. Epidermidis: 0.855
5.2% 2-Butyl Octanol, 8 Hour
  Measured Optical Density of S. Epidermidis: 0.918
5.2% 2-Butyl Octanol, 9 Hour
  Measured Optical Density of S. Epidermidis: 0.994
5.2% 2-Butyl Octanol, 10 Hour
  Measured Optical Density of S. Epidermidis: 1.052
5.2% 2-Butyl Octanol, 11 Hour
  Measured Optical Density of S. Epidermidis: 1.067
5.2% 2-Butyl Octanol, 12 Hour
  Measured Optical Density of S. Epidermidis: 1.066
5.2% 2-Butyl Octanol, 13 Hour
  Measured Optical Density of S. Epidermidis: 1.081
5.2% 2-Butyl Octanol, 14 Hour
  Measured Optical Density of S. Epidermidis: 1.105
5.2% 2-Butyl Octanol, 15 Hour
  Measured Optical Density of S. Epidermidis: 1.118
5.2% 2-Butyl Octanol, 16 Hour
  Measured Optical Density of S. Epidermidis: 1.127
5.2% 2-Butyl Octanol, 17 Hour
  Measured Optical Density of S. Epidermidis: 1.142
5.2% 2-Butyl Octanol, 18 Hour
  Measured Optical Density of S. Epidermidis: 1.127
